tested on: A549; assay: Cell growth inhibition assay (SRB), A549; assay type: cell-based, Human; conditions: A549 (lung), 96 hours
Source text: (§1) Cancer cells used in this study to determine the effect of quinazoline compounds were obtained from the following sources: Human OVCAR-3 (ovary), MCF-7 (breast, hormone-dependent), Hs 578T (breast), MDA-MB-231 (breast), HeLa (cervix), PC3 (prostate), HepG2 (liver), A549 (lung), Caki-1 (kidney), HT-29 (colon), HCT116 (colon) and PANC-1 (pancreas) from the American Type Culture Collection (ATCC) (Manassas, Va.); U251 (brain) from Riken (Japan); MKN-45 (stomach) from DSMZ (Germany); UMRC2 (kidney) and Lox IMVI (melanoma) from the United States National Cancer Institute (Bethesda, Md.). All cell lines except Hs 578T, MDA-MB-231, HCT116, UMRC2, Caki-1 and PANC-1 were grown in RPMI1640 medium (Invitrogen, Carlsbad, Calif.) supplemented with 10% fetal bovine serum (“FBS”), 1 mM sodium pyruvate, 10 mM HEPES and 100 U/ml penicillin and 100 μg/ml streptomycin (“P/S”). Hs 578T, MDA-MB-231, HCT116, UMRC2, Caki-1 and PANC-1 cells were maintained in Dulbecco's modified Eagle's medium (“DMEM”, Invitrogen) supplemented with 10% FBS, P/S, 10 mM HEPES and 2 mM L-glutamine. All cells were incubated at 37° C. under humidified 5% CO2.
(§2) The growth inhibition of the substituted quinazoline derivative compounds against a variety of human tumor cells was evaluated. The relative importance of particular substituent groups on the compounds was also studied. The substituted quinazoline derivative compounds, prepared as described above, were tested, along with DMSO as a control.
(§3) The growth inhibition assay of various compounds against 15 human tumor cell lines was performed using the Sulforhodamnine B (“SRB”) method (Skehan et al., J. National Cancer Institute, 82: 1107-1112 (1990)). Briefly, exponentially growing tumor cells were seeded into a 96-well plate at a density of 2-3×10^3 cells/well and treated with quinazoline compounds the next day. Triplicate wells were used for each treatment. The cells were. incubated with the various compounds for 96 hours at 37° C. in a humidified 5% CO2 atmosphere. After 96-hour incubation, cells were fixed with 10% trichloroacetic acid (“TCA”), incubated for 1 hour at 4° C., and washed 3 times with tap water. Subsequently cells were stained with 0.4% sulforhodamine B in 1% acetic acid for 30 minutes, washed 4 times with 1% acetic acid, and air-dried again. After 5 minutes agitation in 10 mM Tris solution, the absorbance of each well was measured at 530 nm using Benchmark Plus Microplate reader (Bio-Rad Laboratories, Hercules, Calif.).
(§4) To translate the OD530 values into the number of live cells in each well, the OD530 values were compared to those on standard OD530—versus—cell number curves generated for each cell line. The percent survival was calculated using the formula: % Survival=live cell number [test]/live cell number [control]×100
(§5) The IC50 values were calculated by non-linear regression analysis.

Compound | IC50 [µM]
Ic1ccc2ncnc(NCCCCc3ccccc3)c2c1 [RX-1670] | > 3
Cc1cccc2ncnc(NCCc3ccc(F)cc3)c12 [RX-1541] | 1.89
Cc1cc(C)c(Nc2ncnc3ccc([N+](=O)[O-])cc23)c(C)c1 [RX-1122] | 2
c1ccc(CCCCNc2ncnc3cc4[nH]cnc4cc23)cc1 [RX-1842] | > 3

tested on: HepG2; assay: Cell growth inhibition assay (SRB), HepG2; assay type: cell-based, Human; conditions: HepG2 (liver), 96 hours, read-out: Inhibition of cell growth (IC50, μM) HepG 2
Source text: as §1, §2, §3, §4, §5

Compound | IC50 [µM]
Ic1ccc2ncnc(NCCCCc3ccccc3)c2c1 [RX-1670] | 1.51
Cc1cccc2ncnc(NCCc3ccc(F)cc3)c12 [RX-1541] | 0.91
Cc1cc(C)c(Nc2ncnc3ccc([N+](=O)[O-])cc23)c(C)c1 [RX-1122] | 2.39
c1ccc(CCCCNc2ncnc3cc4[nH]cnc4cc23)cc1 [RX-1842] | 2.47

tested on: MKN-45; assay: Cell growth inhibition assay (SRB), MKN-45; assay type: cell-based, Human; conditions: MKN-45 (stomach), 96 hours
Source text: as §1, §2, §3, §4, §5

Compound | IC50 [µM]
Ic1ccc2ncnc(NCCCCc3ccccc3)c2c1 [RX-1670] | > 3
Cc1cccc2ncnc(NCCc3ccc(F)cc3)c12 [RX-1541] | > 3
Cc1cc(C)c(Nc2ncnc3ccc([N+](=O)[O-])cc23)c(C)c1 [RX-1122] | 1.33
c1ccc(CCCCNc2ncnc3cc4[nH]cnc4cc23)cc1 [RX-1842] | > 3

tested on: PANC-1; assay: Cell growth inhibition assay (SRB), PANC-1; assay type: cell-based, Human; conditions: PANC-1 (pancreas), 96 hours
Source text: as §1, §2, §3, §4, §5

Compound | IC50 [µM]
Ic1ccc2ncnc(NCCCCc3ccccc3)c2c1 [RX-1670] | > 3
Cc1cccc2ncnc(NCCc3ccc(F)cc3)c12 [RX-1541] | 0.22
Cc1cc(C)c(Nc2ncnc3ccc([N+](=O)[O-])cc23)c(C)c1 [RX-1122] | 1.42
c1ccc(CCCCNc2ncnc3cc4[nH]cnc4cc23)cc1 [RX-1842] | > 3

tested on: HT-29; assay: Cell growth inhibition assay (SRB), HT-29; assay type: cell-based, Human; conditions: HT-29 (colon), 96 hours
Source text: as §1, §2, §3, §4, §5

Compound | IC50 [µM]
Ic1ccc2ncnc(NCCCCc3ccccc3)c2c1 [RX-1670] | > 3
Cc1cccc2ncnc(NCCc3ccc(F)cc3)c12 [RX-1541] | 1.26
Cc1cc(C)c(Nc2ncnc3ccc([N+](=O)[O-])cc23)c(C)c1 [RX-1122] | 2.55
c1ccc(CCCCNc2ncnc3cc4[nH]cnc4cc23)cc1 [RX-1842] | > 3

tested on: PC3; assay: Cell growth inhibition assay (SRB), PC3; assay type: cell-based, Human; conditions: PC3 (prostate), 96 hours
Source text: as §1, §2, §3, §4, §5

Compound | IC50 [µM]
Ic1ccc2ncnc(NCCCCc3ccccc3)c2c1 [RX-1670] | > 3
Cc1cccc2ncnc(NCCc3ccc(F)cc3)c12 [RX-1541] | > 3
Cc1cc(C)c(Nc2ncnc3ccc([N+](=O)[O-])cc23)c(C)c1 [RX-1122] | 0.88
c1ccc(CCCCNc2ncnc3cc4[nH]cnc4cc23)cc1 [RX-1842] | > 3

tested on: U251; assay: Cell growth inhibition assay (SRB), U251; assay type: cell-based, Human; conditions: U251 (brain), 96 hours
Source text: as §1, §2, §3, §4, §5

Compound | IC50 [µM]
Ic1ccc2ncnc(NCCCCc3ccccc3)c2c1 [RX-1670] | 0.62
Cc1cccc2ncnc(NCCc3ccc(F)cc3)c12 [RX-1541] | 1.78
Cc1cc(C)c(Nc2ncnc3ccc([N+](=O)[O-])cc23)c(C)c1 [RX-1122] | 0.57
c1ccc(CCCCNc2ncnc3cc4[nH]cnc4cc23)cc1 [RX-1842] | 1.93

tested on: HeLa; assay: Cell growth inhibition assay (SRB), HeLa; assay type: cell-based, Human; conditions: HeLa (cervix), 96 hours
Source text: as §1, §2, §3, §4, §5

Compound | IC50 [µM]
Ic1ccc2ncnc(NCCCCc3ccccc3)c2c1 [RX-1670] | > 3
Cc1cccc2ncnc(NCCc3ccc(F)cc3)c12 [RX-1541] | > 3
Cc1cc(C)c(Nc2ncnc3ccc([N+](=O)[O-])cc23)c(C)c1 [RX-1122] | 1.3
c1ccc(CCCCNc2ncnc3cc4[nH]cnc4cc23)cc1 [RX-1842] | > 3

tested on: Lox IMVI; assay: Cell growth inhibition assay (SRB), Lox IMVI; assay type: cell-based, Human; conditions: Lox IMVI (melanoma), 96 hours
Source text: as §1, §2, §3, §4, §5

Compound | IC50 [µM]
Ic1ccc2ncnc(NCCCCc3ccccc3)c2c1 [RX-1670] | 0.88
Cc1cccc2ncnc(NCCc3ccc(F)cc3)c12 [RX-1541] | 2.96
Cc1cc(C)c(Nc2ncnc3ccc([N+](=O)[O-])cc23)c(C)c1 [RX-1122] | 1.1
c1ccc(CCCCNc2ncnc3cc4[nH]cnc4cc23)cc1 [RX-1842] | 1.15

tested on: OVCAR-3; assay: Cell growth inhibition assay (SRB), OVCAR-3; assay type: cell-based, Human; conditions: OVCAR-3 (ovary), 96 hours
Source text: as §1, §2, §3, §4, §5

Compound | IC50 [µM]
Ic1ccc2ncnc(NCCCCc3ccccc3)c2c1 [RX-1670] | > 3
Cc1cccc2ncnc(NCCc3ccc(F)cc3)c12 [RX-1541] | 2.86
Cc1cc(C)c(Nc2ncnc3ccc([N+](=O)[O-])cc23)c(C)c1 [RX-1122] | 1.01
c1ccc(CCCCNc2ncnc3cc4[nH]cnc4cc23)cc1 [RX-1842] | > 3

tested on: MCF-7; assay: Cell growth inhibition assay (SRB), MCF-7; assay type: cell-based, Human; conditions: MCF-7 (breast, hormone-dependent), 96 hours
Source text: as §1, §2, §3, §4, §5

Compound | IC50 [µM]
Ic1ccc2ncnc(NCCCCc3ccccc3)c2c1 [RX-1670] | 0.43
Cc1cccc2ncnc(NCCc3ccc(F)cc3)c12 [RX-1541] | 1.26
Cc1cc(C)c(Nc2ncnc3ccc([N+](=O)[O-])cc23)c(C)c1 [RX-1122] | 0.63
c1ccc(CCCCNc2ncnc3cc4[nH]cnc4cc23)cc1 [RX-1842] | 1.34

tested on: MDA-MB-231; assay: Cell growth inhibition assay (SRB), MDA-MB-231; assay type: cell-based, Human; conditions: MDA-MB-231 (breast), 96 hours
Source text: as §1, §2, §3, §4, §5

Compound | IC50 [µM]
Ic1ccc2ncnc(NCCCCc3ccccc3)c2c1 [RX-1670] | 1.06
Cc1cccc2ncnc(NCCc3ccc(F)cc3)c12 [RX-1541] | 0.47
Cc1cc(C)c(Nc2ncnc3ccc([N+](=O)[O-])cc23)c(C)c1 [RX-1122] | 0.73
c1ccc(CCCCNc2ncnc3cc4[nH]cnc4cc23)cc1 [RX-1842] | 0.84

tested on: Hs 578T; assay: Cell growth inhibition assay (SRB), Hs 578T; assay type: cell-based, Human; conditions: Hs 578T (breast), 96 hours
Source text: as §1, §2, §3, §4, §5

Compound | IC50 [µM]
Ic1ccc2ncnc(NCCCCc3ccccc3)c2c1 [RX-1670] | 1.35
Cc1cccc2ncnc(NCCc3ccc(F)cc3)c12 [RX-1541] | 0.53
Cc1cc(C)c(Nc2ncnc3ccc([N+](=O)[O-])cc23)c(C)c1 [RX-1122] | 1.35
c1ccc(CCCCNc2ncnc3cc4[nH]cnc4cc23)cc1 [RX-1842] | 1.05

tested on: UMRC2; assay: Cell growth inhibition assay (SRB), UMRC2; assay type: cell-based, Human; conditions: UMRC2 (kidney), 96 hours
Source text: as §1, §2, §3, §4, §5

Compound | IC50 [µM]
Ic1ccc2ncnc(NCCCCc3ccccc3)c2c1 [RX-1670] | 1.53
Cc1cccc2ncnc(NCCc3ccc(F)cc3)c12 [RX-1541] | 0.37
Cc1cc(C)c(Nc2ncnc3ccc([N+](=O)[O-])cc23)c(C)c1 [RX-1122] | 1.09
c1ccc(CCCCNc2ncnc3cc4[nH]cnc4cc23)cc1 [RX-1842] | 1.98

tested on: Caki-1; assay: Cell growth inhibition assay (SRB), Caki-1; assay type: cell-based, Human; conditions: Caki-1 (kidney), 96 hours
Source text: as §1, §2, §3, §4, §5

Compound | IC50 [µM]
Ic1ccc2ncnc(NCCCCc3ccccc3)c2c1 [RX-1670] | > 3
Cc1cccc2ncnc(NCCc3ccc(F)cc3)c12 [RX-1541] | > 3
Cc1cc(C)c(Nc2ncnc3ccc([N+](=O)[O-])cc23)c(C)c1 [RX-1122] | 1.11
c1ccc(CCCCNc2ncnc3cc4[nH]cnc4cc23)cc1 [RX-1842] | > 3
